Each structure is given as a SMILES string.

Format in all cases: cell-based
In experiment [1] the target is T1, NR3-1/NMDAR1-3C heteromeric complex (Homo sapiens, UniProt Q05586+Q13224).
T1 construct: expressed in transfected cells; host or cells: HEK293 (transient, lipofectamine)
As to the kind of experiment: Whole-cell voltage-clamp recording of NMDA-evoked currents in transiently transfected HEK293 cells (heteromeric expression). Particulars: 60 μM NMDA. As to the method: (§1) For transient expression, HEK293 cells were transfected with approximately 0.4 μg DNA (as pcDNA1-Amp/hNR3 or pcDNA1-Amp/hNR1-3C) per 10^5 HEK293 cells, by lipofectamine-mediated DNA transfection according to the manufacturer's (Life Technologies Inc., Gaithersburg, Md.) specifications. In coexpression experiments, i.e. for heteromeric expression of NR3-1 and NMDAR1-3C, the HEK293 cells were similarly transfected with 0.8 μg of a DNA mixture containing pcDNA1-Amp/hNR3 and pcDNA1-Amp/hNR1-3C. Briefly, HEK293 cells were plated at a density of 10^5 cells/dish and then grown for 24 hours in 10% FBS-supplemented MEM medium (Life Technologies Inc., Gaithersburg, Md.). The medium was then removed and cells were washed in OPTI-MEM I medium (Life Technologies Inc.) lacking FBS, prior to transfection. A transfection solution (100 μl ) containing 2-4 μl of lipofectamine and DNA was then applied to the cells. After incubation for 4 hours at 37° C., cells were washed as previously described and then allowed to grow for 48 hours in 10% FBS-supplemented MEM medium containing 50 μM DL-AP5 (2-amino-5-phosphonopentanoic acid) and 50 μM 7-chlorokyneurinic acid prior to electrophysiological recording. […]

The target of another experiment is T2, NMDAR1-3C (Homo sapiens, UniProt Q05586).
T2 construct: expressed in transfected cells; host or cells: HEK293 (transient, lipofectamine)
As to the kind of experiment: Whole-cell voltage-clamp recording of NMDA-evoked currents in HEK293 cells transfected with NMDAR1-3C alone. Particulars: 60 μM NMDA; HEK293 cells transiently transfected with NMDAR1-3C alone; FIG. 10. As to the method:
as §1

The target in a further experiment is T3, NR3 (Homo sapiens, UniProt Q13224).
T3 construct: expressed in transfected cells; host or cells: HEK293 (transient, lipofectamine)
Nature of the experiment: Whole-cell voltage-clamp recording of NMDA-evoked currents in HEK293 cells transfected with NR3 alone. To be noted: 60 μM NMDA; HEK293 cells transiently transfected with NR3 alone; FIG. 10. As to the method:
as §1

T1 sequence (Q13224 27-1484, other chains not shown): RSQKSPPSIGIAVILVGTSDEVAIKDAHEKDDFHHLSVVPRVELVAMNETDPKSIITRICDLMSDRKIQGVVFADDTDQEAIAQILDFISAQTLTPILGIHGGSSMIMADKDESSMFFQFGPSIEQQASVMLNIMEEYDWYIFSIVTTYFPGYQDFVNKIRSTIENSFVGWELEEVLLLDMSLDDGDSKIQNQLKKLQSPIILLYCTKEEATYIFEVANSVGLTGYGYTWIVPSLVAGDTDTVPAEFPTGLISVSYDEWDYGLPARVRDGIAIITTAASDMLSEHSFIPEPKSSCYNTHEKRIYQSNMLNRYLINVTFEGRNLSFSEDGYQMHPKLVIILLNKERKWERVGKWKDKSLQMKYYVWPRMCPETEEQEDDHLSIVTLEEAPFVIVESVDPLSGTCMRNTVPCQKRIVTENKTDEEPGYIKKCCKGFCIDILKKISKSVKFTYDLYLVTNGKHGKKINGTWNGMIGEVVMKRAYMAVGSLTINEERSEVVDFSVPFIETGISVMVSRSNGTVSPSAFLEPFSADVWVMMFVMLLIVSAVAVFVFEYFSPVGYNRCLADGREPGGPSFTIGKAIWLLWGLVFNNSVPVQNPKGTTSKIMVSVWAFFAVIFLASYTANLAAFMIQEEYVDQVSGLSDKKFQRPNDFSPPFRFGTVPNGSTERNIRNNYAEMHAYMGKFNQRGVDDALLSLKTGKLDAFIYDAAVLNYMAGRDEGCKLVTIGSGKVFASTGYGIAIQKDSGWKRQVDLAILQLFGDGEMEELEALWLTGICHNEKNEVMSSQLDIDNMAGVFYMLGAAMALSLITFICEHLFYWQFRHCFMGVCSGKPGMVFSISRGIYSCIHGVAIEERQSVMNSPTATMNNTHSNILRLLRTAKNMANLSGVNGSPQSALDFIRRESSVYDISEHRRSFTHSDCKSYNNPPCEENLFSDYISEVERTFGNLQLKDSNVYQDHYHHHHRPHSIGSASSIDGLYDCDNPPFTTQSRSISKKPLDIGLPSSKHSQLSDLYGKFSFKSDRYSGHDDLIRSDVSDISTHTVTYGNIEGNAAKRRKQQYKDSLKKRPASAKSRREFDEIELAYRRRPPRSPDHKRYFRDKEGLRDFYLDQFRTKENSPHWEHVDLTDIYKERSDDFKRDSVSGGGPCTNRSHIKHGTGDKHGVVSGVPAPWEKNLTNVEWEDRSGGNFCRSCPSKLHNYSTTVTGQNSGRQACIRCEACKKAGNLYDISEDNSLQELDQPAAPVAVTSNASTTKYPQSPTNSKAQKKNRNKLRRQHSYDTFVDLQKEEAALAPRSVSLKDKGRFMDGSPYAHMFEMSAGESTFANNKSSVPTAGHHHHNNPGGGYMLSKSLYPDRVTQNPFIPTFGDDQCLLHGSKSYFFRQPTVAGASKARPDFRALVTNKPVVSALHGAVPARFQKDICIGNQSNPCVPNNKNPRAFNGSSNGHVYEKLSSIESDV
T3 sequence (Q13224 27-1484): as the sequence (Q13224 27-1484, other chains not shown) above

Turning to `[Cl-].[Cl-].[Mg+2]` [MgCl2], the “block of NMDA-induced currents” value in experiment [1] (1 mM MgCl2, HEK293 cells transfected with both NR3-1 and NMDAR1-3C) was “blocked”.
As for `CN[C@H](CC(=O)O)C(=O)O` [NMDA, N-methyl-D-aspartate], the NMDA-induced depolarizations result in experiment [1] (HEK293 cells transiently transfected with both NR3-1 and NMDAR1-3C, FIG. 10) is given as “NMDA-induced depolarizations were, however, observed”; on NMDAR1-3C, “No NMDA-induced depolarizations were observed”; at NR3 it was “No NMDA-induced depolarizations were observed”.

(Values after patent publication US6391566B1, “Ionotropic human glutamate receptor subunit NR3” (NPS Allelix Corporation, priority 1992, dated 2002).)
